According to US11535609B2, “Pyrazine-2(1H)-ketone compound preparation method” (ZHANGZHOU PIEN TZE HUANG PHARMACEUTICAL CO., LTD., priority 2019, dated 2022):

How the values were obtained:
[1] = Pharmacokinetics in mice, single gavage; type: in vivo, CD-1 mouse (male)
Method: Experimental purpose: To test the pharmacokinetics of the compound in mice
CD-1 mouse (male), vehicle (0.5% (w/v) methylcellulose 0.5% (v/v) Tween 80 aqueous solution), trifluoroacetate of compound 0027.
The vehicle was an aqueous solution of 0.5% (w/v) methylcellulose and 0.5% (v/v) Tween 80, and it was prepared according to the following procedure:
Formulation of Preparations for Intragastric Administration: […]
a. An appropriate amount of the test product was weighed and put into a glass bottle;
b. 70% volume of vehicle (0.5% (w/v) methyl cellulose 0.5% (v/v) Tween 80 aqueous solution) was added;
c. The preparation was stirred until it was visually homogeneous, and subjected to ultrasound in water bath as needed;
e. Make up the remaining volume of 0.5% methylcellulose+0.5% Tween 80, and the mixture was stirred until being visually homogeneous.
Animals in groups 1 and 2 were administrated 5 mg/mL and 30 mg/mL compounds by single gavage, with a dose volume of 10 mL/kg.
The body weight of the animals was weighed before administration, and the administration volume was calculated based on the body weight.
Whole blood samples (30 μL) were collected at the prescribed time (0.25, 0.5, 1, 2, 4, 6, 8, 24 h) through saphenous vein blood collection, and the actual blood collection time was recorded in the test record. The acceptable error of the collection time point was a time point within 1 hour of the administration ±1 minute, and the acceptable error of other time points is a theoretical time ±5%.
All blood samples were immediately transferred to labeled commercial centrifuge tubes containing K2-EDTA. After being collected, the blood samples were centrifuged at 3200 rpm for 10 minutes at 4° C. to aspirate the supernatant plasma, which was quickly placed in dry ice, kept at −20° C. or a lower temperature for LC-MS/MS analysis. The pharmacokinetic parameters were calculated.

[2] = system: wild-type FGFR; assay: Inhibitory activity of wild-type kinase in vitro (overall conclusion); type: biochemical, human; settings: conclusion in words
Method: The IC50 value was determined using ^33P isotope-labeled kinase activity test (Reaction Biology Corp) to evaluate the inhibitory ability of the compounds to be tested on human FGFR4 and VEGFR2.
Buffer conditions: 20 mM 4-(2-hydroxyethyl)-1-piperazineethanesulfonic acid (Hepes) (pH 7.5), 10 mM MgCl2, 1 mM ethylene glycol-bis-(2-aminoethyl ether)tetra acetic acid (EGTA), 0.02% polyoxyethylene lauryl ether (Brij35), 0.02 mg/ml bovine serum albumin (BSA), 0.1 mM sodium vanadate (Na3VO4), 2 mM dithiothreitol (DTT), 1% DMSO.
Experimental steps: At room temperature, the compounds to be tested were dissolved in DMSO to prepare a 10 mM solution for use. The substrate was dissolved in the freshly prepared buffer, and the kinase to be tested was added thereto and mixed well. The DMSO solution in which the compounds to be tested were dissolved was added to the above-mentioned homogeneous reaction solution using acoustic technology (Echo 550). The compound concentration in the reaction solution is 10 μM, 3.33 μM, 1.11 μM, 0.370 μM, 0.123 μM, 41.2 nM, 13.7 nM, 4.57 nM, 1.52 nM, 0.508 nM, or 10 μM, 2.50 μM, 0.62 μM, 0.156 μM, 39.1 nM, 9.8 nM, 2.4 nM, 0.61 nM, 0.15 nM, 0.038 nM. […] After the filter paper was repeatedly washed with 0.75% phosphoric acid solution, the radioactivity of the phosphorylated substrate remaining on the filter paper was measured. […]

Work on `COc1cc(OC)c(Cl)c(-c2nc(-c3nc(-c4cn(C)nc4C)cnc3N)cn(C)c2=O)c1` yielded an AUC0-inf ([1]; CD-1 mouse, gavage, 50 mpk) of 95.847 µM·h, an AUC0-last ([1]; CD-1 mouse, gavage, 50 mpk) of 85.826 µM·h and an MRT0-inf ([1]; CD-1 mouse, gavage, 50 mpk) of 5.39 h. For the same compound, the MRT0-last ([1]; CD-1 mouse, gavage, 50 mpk) was 4.33 h, the T1/2 ([1]; CD-1 mouse, gavage, 50 mpk) was 2.46 h and the Tmax ([1]; CD-1 mouse, gavage, 50 mpk) was 1.00 h. For the same compound, the AUC0-last ([1]; CD-1 mouse, gavage, 300 mpk) was 699.413 µM·h, the MRT0-last ([1]; CD-1 mouse, gavage, 300 mpk) was 11.1 h and the Tmax ([1]; CD-1 mouse, gavage, 300 mpk) was 7.00 h. The “pharmacokinetic indexes in mice” value ([1]; conclusion in words) was “good pharmacokinetic indexes”, the “inhibitory activity against wild-type FGFR” value [2] was “good inhibitory activity” and the “selectivity towards FGFR2 and FGFR3 compared to FGFR1 and FGFR4” value [2] was “relative high selectivity”.
